Assay [1] deals with Eotaxin-3 (CCL26) release in human whole blood stimulated with IL-4. Put plainly: Human whole blood eotaxin-3 assay (IL-4 stimulated, Eotaxin-3 release). It counts as cell-based. The following applies: Homo sapiens; for Emax: 48 h; for EC50: Hec50, 48 h. The method, boiled down:
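Lithium-heparin blood preincubated 2 h at 37° C with 4-fold compound dilutions (0.5% DMSO, triplicates), then stimulated with 400 pM recombinant human IL-4 for 48 h. Eotaxin-3 in plasma supernatant measured by MSD immunoassay.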

Another assay addresses human STAT6 (Homo sapiens (Human), UniProt P42226). Put plainly: Surface plasmon resonance assay (Biacore 8K, binding to immobilized STAT6). The following applies: human STAT6 aa122-658, N-terminal His-tag, CM5 chip, 25° C.; geometric mean; read-out: STAT6 SPR Kd. The method, boiled down: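 Run at 25° C with His-tagged STAT6 aa122-658 (insect-cell expressed) amine-coupled to a CM5 chip, reference-subtracted, in PBS-P+ with 2% DMSO. Multi-cycle kinetics: 60 sec. contact, up to 300 sec. dissociation. Affinity fitted from late report-point binding isotherms, with Rmax both free and fixed to theoretical 1:1.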
For orientation: Surface plasmon resonance follows binding to a sensor surface in real time, without labels.

human STAT6, sequence (P42226 122-658): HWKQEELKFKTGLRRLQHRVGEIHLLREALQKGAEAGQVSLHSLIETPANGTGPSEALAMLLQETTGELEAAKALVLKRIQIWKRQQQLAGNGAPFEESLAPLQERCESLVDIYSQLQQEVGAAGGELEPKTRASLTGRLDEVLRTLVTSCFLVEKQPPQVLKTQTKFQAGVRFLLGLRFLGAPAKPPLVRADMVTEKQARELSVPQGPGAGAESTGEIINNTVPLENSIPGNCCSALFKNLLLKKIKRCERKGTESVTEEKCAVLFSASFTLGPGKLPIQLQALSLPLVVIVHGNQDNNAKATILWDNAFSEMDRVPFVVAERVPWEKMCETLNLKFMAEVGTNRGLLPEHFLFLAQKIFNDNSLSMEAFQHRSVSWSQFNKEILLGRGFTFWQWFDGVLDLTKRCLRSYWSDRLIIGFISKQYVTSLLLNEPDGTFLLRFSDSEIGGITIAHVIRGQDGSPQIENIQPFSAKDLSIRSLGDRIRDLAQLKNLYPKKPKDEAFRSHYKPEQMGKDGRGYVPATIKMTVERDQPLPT

For orientation: Emax means the greatest response seen or fitted, relative to the assay's reference. By Kd is commonly meant a measure of binding affinity in units of concentration. In turn, `CN(C)C(=O)c1ccc(C2CCN(Cc3cc4c(-c5ccc(N)c(C(=O)O)c5)ccnc4n3C)CC2)cc1` [Example 1k6, 2-Amino-5-[2-[[4-[4-(dimethylcarbamoyl)phenyl]-1-piperidyl]methyl]-1-methyl-pyrrolo[2,3-b]pyridin-4-yl]benzoic acid] registered an Emax in assay [1] of 57%. For the same compound, the Kd at human STAT6 worked out at 9.05 nM.

A word on the EC50: it is the concentration giving half of the maximal effect. Low readings indicate an effect from little substance, high ones a need for much substance. Take `CNc1ccc(-c2ccnc3c2cc(CN2CC=C(c4ccc(C(=O)N(C)C)cc4C)CC2)n3C)nn1` [Example 1p6, N,N,3-Trimethyl-4-[1-[[1-methyl-4-[6-(methylamino)pyridazin-3-yl]pyrrolo[2,3-b]pyridin-2-yl]methyl]-3,6-dihydro-2H-pyridin-4-yl]benzamide]: the EC50 in assay [1] stood at 723 nM. For the same compound, on human STAT6, the Kd is 22 nM.

`CNc1ccc(-c2ccnc3c2cc(CN2CC[C@H](c4ccc(C(=O)N(C)C)cc4)[C@H](F)C2)n3C)cn1` (stereo in doubt) [Example 1s28, N,N-dimethyl-4-[(3S,4R)-3-fluoro-1-[[1-methyl-4-[6-(methylamino)-3-pyridyl]pyrrolo[2,3-b]pyridin-2-yl]methyl]-4-piperidyl]benzamide] returned an Emax in assay [1] of 76.4%. Further, on human STAT6, the Kd is 20.6 nM.

As for `CNc1ccc(-c2ccnc3c2cc([C@H](C)N2CCC(c4ccc(C(=O)N(C)C)cc4)CC2)n3C)c(C#N)n1` [Example 1af39, (S)-4-(1-(1-(4-(2-xyano-6-(methylamino)pyridin-3-yl)-1-methyl-1H-pyrrolo-[2,3-b]pyridin-2-yl)ethyl)piperidin-4-yl)-N,N-dimethylbenzamide], in assay [1], the EC50 stood at 115 nM. Moreover, the Kd at human STAT6 came to 32.7 nM.

In turn, `CNc1ccc(-c2ccnc3c2cc(CN2CCC(c4ccc(C(=O)N(C)C)cc4)CC2=O)n3C)cn1` (centres unmarked) [Example 1s2, N,N-Dimethyl-4-[1-[[1-methyl-4-[6-(methylamino)-3-pyridyl]pyrrolo[2,3-b]pyridin-2-yl]methyl]-2-oxo-4-piperidyl]benzamide] showed an Emax in assay [1] of 54.4%. In addition, the Kd at human STAT6 is 35.8 nM.

For `CNc1ccc(-c2ccnc3c2cc(CN2CC=C(c4ccc(C(=O)N(C)C)cc4C)CC2)n3C)cn1` [Example 1s8, N,N,3-Trimethyl-4-[1-[[1-methyl-4-[6-(methylamino)-3-pyridyl]pyrrolo[2,3-b]pyridin-2-yl]methyl]-3,6-dihydro-2H-pyridin-4-yl]benzamide], the EC50 in assay [1] is 958 nM. In addition, the Kd on human STAT6 is 33.8 nM.

In assay [1], `CN(C)C(=O)c1ccc(C2CCN(Cc3cc4c(-c5ccc(N)nc5C#N)ccnc4n3C)CC2)cc1` [Example 1k43, 4-[1-[[4-(6-Amino-2-cyano-3-pyridyl)-1-methyl-pyrrolo[2,3-b]pyridin-2-yl]methyl]-4-piperidyl]-N,N-dimethyl-benzamide] displayed an EC50 of 871 nM. Moreover, the Kd on human STAT6 was 31.4 nM.

As for `CNc1ccc(-c2ccnc3c2cc(CN2CCC(c4ccc(C(=O)N(C)C)cc4F)CC2)n3C)cn1` [Example 1s30, 3-Fluoro-N,N-dimethyl-4-(1-((1-methyl-4-(6-(methylamino)pyridin-3-yl)-1H-pyrrolo[2,3-b]pyridin-2-yl)methyl)piperidin-4-yl)benzamide], the EC50 in assay [1] came out at 2580 nM. Besides, the Kd on human STAT6 came to 22.1 nM.

In assay [1], `CNc1ccc(-c2ccnc3c2cc(CN2CC=C(c4ccc(C(=O)N(C)C)cc4C)CC2)n3C)[n+]([O-])c1` [Example 1u3, N,N,3-Trimethyl-4-[1-[[1-methyl-4-[5-(methylamino)-1-oxido-pyridin-1-ium-2-yl]pyrrolo[2,3-b]pyridin-2-yl]methyl]-3,6-dihydro-2H-pyridin-4-yl]benzamide] came in with an EC50 of 104 nM. At human STAT6, the Kd is 16 nM.

For `[2H]C([2H])([2H])N(C(=O)c1ccc(C2CCN([C@H](C)c3cc4c(-c5ccc(N)cn5)ccnc4n3C)CC2)cc1)C([2H])([2H])[2H]` [Example 1af36, (R)-4-(1-(1-(4-(5-aminopyridin-2-yl)-1-methyl-1H-pyrrolo[2,3-b]pyridin-2-yl)ethyl)piperidin-4-yl)-N,N-bis(methyl-d3)benzamide], the EC50 in assay [1] was 404 nM. The Kd on human STAT6 was determined as 15.7 nM.

Source of the values: patent US20250340551A1, “SMALL MOLECULE MODULATORS OF STAT6” (Gilead Sciences, Inc., priority 2024, published 2025).
